Data published in the NIST ThermoML archive (doi:10.1021/acs.jced.7b00121).
± gives the expanded uncertainty stated by the source.

Details: 101.33 kPa, Liquid; for viscosity: Falling or rolling sphere viscometry; for mass density: Vibrating tube method

| SMILES | viscosity (288.15 K) | mass density (288.15 K) | viscosity (293.15 K) | mass density (293.15 K) | viscosity (298.15 K) | mass density (298.15 K) | viscosity (303.15 K) | mass density (303.15 K) | viscosity (308.15 K) | mass density (308.15 K) | viscosity (313.15 K) | mass density (313.15 K) | viscosity (318.15 K) | mass density (318.15 K) | viscosity (323.15 K) | mass density (323.15 K) | viscosity (328.15 K) | mass density (328.15 K) | viscosity (333.15 K) | mass density (333.15 K) | also measured |
| --- | --- | --- | --- | --- | --- | --- | --- | --- | --- | --- | --- | --- | --- | --- | --- | --- | --- | --- | --- | --- | --- |
| CCCCCCCCCC [decane] | 0.987 ± 0.099 mPa·s | 733.57 ± 1.5 kg/m3 | 0.915 ± 0.092 mPa·s | 729.81 ± 1.5 kg/m3 | 0.852 ± 0.085 mPa·s | 726.05 ± 1.5 kg/m3 | 0.797 ± 0.08 mPa·s | 722.28 ± 1.4 kg/m3 | 0.747 ± 0.075 mPa·s | 718.49 ± 1.4 kg/m3 | 0.703 ± 0.07 mPa·s | 714.69 ± 1.4 kg/m3 | 0.663 ± 0.066 mPa·s | 710.88 ± 1.4 kg/m3 | 0.627 ± 0.063 mPa·s | 707.06 ± 1.4 kg/m3 | 0.593 ± 0.059 mPa·s | 703.21 ± 1.4 kg/m3 | 0.563 ± 0.056 mPa·s | 699.36 ± 1.4 kg/m3 | viscosity (338.15 K): 0.536 ± 0.054 mPa·s; mass density (338.15 K): 695.48 ± 1.4 kg/m3; viscosity (343.15 K): 0.512 ± 0.051 mPa·s; mass density (343.15 K): 691.59 ± 1.4 kg/m3 |
| CCCCCCC [heptane] | 0.432 ± 0.043 mPa·s | 688.13 ± 1.4 kg/m3 | 0.412 ± 0.041 mPa·s | 683.93 ± 1.4 kg/m3 | 0.393 ± 0.039 mPa·s | 679.71 ± 1.4 kg/m3 | 0.377 ± 0.038 mPa·s | 675.47 ± 1.4 kg/m3 | 0.362 ± 0.036 mPa·s | 671.2 ± 1.4 kg/m3 | 0.348 ± 0.035 mPa·s | 666.89 ± 1.4 kg/m3 | 0.335 ± 0.034 mPa·s | 662.55 ± 1.4 kg/m3 | 0.324 ± 0.033 mPa·s | 658.19 ± 1.3 kg/m3 | 0.312 ± 0.031 mPa·s | 653.79 ± 1.3 kg/m3 | 0.302 ± 0.03 mPa·s | 649.33 ± 1.3 kg/m3 | viscosity (338.15 K): 0.293 ± 0.029 mPa·s; mass density (338.15 K): 644.84 ± 1.3 kg/m3; viscosity (343.15 K): 0.284 ± 0.029 mPa·s; mass density (343.15 K): 640.29 ± 1.3 kg/m3 |
| CCCCCCCCC [nonane] | 0.763 ± 0.077 mPa·s | 721.64 ± 1.4 kg/m3 | 0.713 ± 0.072 mPa·s | 717.78 ± 1.4 kg/m3 | 0.669 ± 0.067 mPa·s | 713.91 ± 1.4 kg/m3 | 0.63 ± 0.063 mPa·s | 710.03 ± 1.4 kg/m3 | 0.594 ± 0.06 mPa·s | 706.12 ± 1.4 kg/m3 | 0.564 ± 0.057 mPa·s | 702.2 ± 1.4 kg/m3 | 0.535 ± 0.054 mPa·s | 698.26 ± 1.4 kg/m3 | 0.509 ± 0.051 mPa·s | 694.3 ± 1.4 kg/m3 | 0.485 ± 0.049 mPa·s | 690.33 ± 1.4 kg/m3 | 0.462 ± 0.046 mPa·s | 686.34 ± 1.4 kg/m3 | viscosity (338.15 K): 0.443 ± 0.044 mPa·s; mass density (338.15 K): 682.31 ± 1.4 kg/m3; viscosity (343.15 K): 0.425 ± 0.043 mPa·s; mass density (343.15 K): 678.26 ± 1.4 kg/m3 |
| CCCCCCCC [octane] | 0.585 ± 0.059 mPa·s | 706.54 ± 1.4 kg/m3 | 0.552 ± 0.055 mPa·s | 702.53 ± 1.4 kg/m3 | 0.523 ± 0.052 mPa·s | 698.51 ± 1.4 kg/m3 | 0.496 ± 0.05 mPa·s | 694.48 ± 1.4 kg/m3 | 0.473 ± 0.047 mPa·s | 690.42 ± 1.4 kg/m3 | 0.45 ± 0.045 mPa·s | 686.34 ± 1.4 kg/m3 | 0.431 ± 0.043 mPa·s | 682.24 ± 1.4 kg/m3 | 0.412 ± 0.041 mPa·s | 678.11 ± 1.4 kg/m3 | 0.395 ± 0.04 mPa·s | 673.95 ± 1.4 kg/m3 | 0.379 ± 0.038 mPa·s | 669.77 ± 1.4 kg/m3 | viscosity (338.15 K): 0.365 ± 0.037 mPa·s; mass density (338.15 K): 665.55 ± 1.4 kg/m3; viscosity (343.15 K): 0.352 ± 0.035 mPa·s; mass density (343.15 K): 661.28 ± 1.3 kg/m3 |
